# Measured values reported in patent publication US9180164B2, “Compounds and methods of modulating angiogenesis” (THE CLEVELAND CLINIC FOUNDATION, priority 2011, dated 2015).
# Read-outs that look alike come from different tables or passages of the source.
# How the values were obtained:
# [1] = test system: mouse lung endothelial cells; conditions: WT EC, vitronectin
# Experimental: Transwell tissue culture inserts were coated with various integrin ligands for 24 h at 4° C. Both WT and DiYF lung endothelial cells were trypsinized and 1×10^5 cells were added into each well. The lower chamber contained varying concentrations of VEGF-A165 (0-20 ng/ml). Cells were allowed to migrate for 12 h and fixed with 3.7% formaldehyde/PBS for 15 min and stained with 0.5% crystal violet. The non-migrated cells adhered to the top surface were removed and three random 10× fields were photographed using Leica inverted phase contrast microscope.
# αvβ3 integrin [2] = molecular target: T1, αvβ3 integrin (Mus musculus, UniProt O54890+P43406); test: Fibrinogen binding assay (FACS); type: cell-based; conditions: WT EC; 20 ng/ml VEGF or 1 mM MnCl2
# T1 construct: endogenous in cells; host or cells: primary mouse lung endothelial cells
# T1 sequence (O54890 26-787): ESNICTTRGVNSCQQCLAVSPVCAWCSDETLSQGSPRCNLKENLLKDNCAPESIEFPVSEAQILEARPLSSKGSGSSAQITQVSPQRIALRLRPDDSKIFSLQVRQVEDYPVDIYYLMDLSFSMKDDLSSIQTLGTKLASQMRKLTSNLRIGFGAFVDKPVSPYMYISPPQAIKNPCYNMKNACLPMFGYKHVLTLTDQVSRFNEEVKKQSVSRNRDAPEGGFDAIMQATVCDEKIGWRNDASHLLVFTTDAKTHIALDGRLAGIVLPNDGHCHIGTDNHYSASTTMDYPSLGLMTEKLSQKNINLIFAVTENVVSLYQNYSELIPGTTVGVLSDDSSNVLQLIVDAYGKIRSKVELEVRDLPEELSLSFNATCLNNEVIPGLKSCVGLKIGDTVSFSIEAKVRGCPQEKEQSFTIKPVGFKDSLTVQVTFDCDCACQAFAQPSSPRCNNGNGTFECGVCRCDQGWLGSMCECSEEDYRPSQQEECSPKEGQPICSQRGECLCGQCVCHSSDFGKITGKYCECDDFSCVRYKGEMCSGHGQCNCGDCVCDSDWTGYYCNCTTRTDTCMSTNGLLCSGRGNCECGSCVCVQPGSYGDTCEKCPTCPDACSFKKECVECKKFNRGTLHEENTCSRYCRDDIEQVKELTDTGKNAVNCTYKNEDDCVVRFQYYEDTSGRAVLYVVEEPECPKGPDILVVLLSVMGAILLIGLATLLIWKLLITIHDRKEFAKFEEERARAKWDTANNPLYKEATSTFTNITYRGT
# T1 sequence (P43406 31-885 limits assumed): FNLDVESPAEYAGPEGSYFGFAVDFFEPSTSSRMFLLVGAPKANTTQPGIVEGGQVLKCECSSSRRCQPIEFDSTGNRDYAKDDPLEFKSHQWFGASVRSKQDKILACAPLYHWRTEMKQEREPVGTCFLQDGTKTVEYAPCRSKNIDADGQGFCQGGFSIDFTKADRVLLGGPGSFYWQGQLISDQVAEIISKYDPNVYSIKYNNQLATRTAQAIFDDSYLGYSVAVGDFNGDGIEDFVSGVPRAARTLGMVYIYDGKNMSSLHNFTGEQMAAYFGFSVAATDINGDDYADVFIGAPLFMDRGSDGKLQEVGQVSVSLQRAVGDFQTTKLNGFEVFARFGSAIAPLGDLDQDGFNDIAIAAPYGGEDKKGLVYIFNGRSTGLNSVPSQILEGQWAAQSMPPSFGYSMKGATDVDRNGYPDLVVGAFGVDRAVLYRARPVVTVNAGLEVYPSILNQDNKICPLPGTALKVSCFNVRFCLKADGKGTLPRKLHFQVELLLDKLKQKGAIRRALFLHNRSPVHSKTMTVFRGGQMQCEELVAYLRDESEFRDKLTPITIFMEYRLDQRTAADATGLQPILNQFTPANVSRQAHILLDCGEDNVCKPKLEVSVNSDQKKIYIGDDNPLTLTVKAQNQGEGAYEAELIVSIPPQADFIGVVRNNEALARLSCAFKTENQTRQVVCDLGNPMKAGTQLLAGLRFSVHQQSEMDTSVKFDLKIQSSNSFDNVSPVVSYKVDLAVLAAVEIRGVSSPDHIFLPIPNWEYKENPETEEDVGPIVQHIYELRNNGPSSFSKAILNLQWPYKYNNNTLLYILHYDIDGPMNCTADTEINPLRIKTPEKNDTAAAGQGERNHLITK
# T1 sequence (P43406 887-1044 limits assumed): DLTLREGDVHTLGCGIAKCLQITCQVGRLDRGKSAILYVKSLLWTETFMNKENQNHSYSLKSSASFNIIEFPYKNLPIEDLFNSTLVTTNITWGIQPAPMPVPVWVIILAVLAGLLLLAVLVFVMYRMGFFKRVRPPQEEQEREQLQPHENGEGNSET
# Experimental: (§1) To assess fibrinogen binding, semiconfluent wild type and DiYF mouse lung endothelial cells were serum starved for 4 h and further induced with 20 ng/ml VEGF-165, 20 ng/ml b-FGF or 1 mm MnC12. Fluorescein isothiocyanate (FITC)-labeled fibrinogen was added at a final concentration of 200 nM for 45 min. […] Fluorescence-activated cell sorting (FACS) was performed using a FACS Calibur (Becton Dickinson, San Jose, Calif.) and data were analyzed using CellQuest software program.
# αvβ3 integrin [3] = test: Fibrinogen binding assay (FACS); type: cell-based, mouse; conditions: DiYF EC; 20 ng/ml VEGF or 1 mM MnCl2
# Experimental: as §1
# [4] = test system: mouse lung endothelial cells; conditions: 20 ng/ml VEGF, 8 h
# Experimental: The formation of vascular tube-like structures by wild type and DiYF mouse lung endothelial cells were assessed on the basement membrane matrix preparation. Six well plates were coated with 0.5 ml of Matrigel according to the manufacturer's instructions. Wild type and DiYF mouse lung endothelial cells were detached from the tissue culture flasks using 20 mM EDTA. Cells were washed twice with sterile 1×PBS and seeded on Matrigel coated plate. Medium was supplemented with or without 20 ng/ml VEGF and further incubated at 37° C. for 8 h. The tube formation was observed using an inverted phase contrast microscope (Leica) and photographs were taken from each well. Using ImagePro software, the degree of tube formation was quantified by measuring the length of tubes in random fields.
# [5] = test system: HUVECs (Human Umbilical vascular endothelial cells); test: Tube formation assay on Matrigel with inhibitory peptide; type: cell-based; conditions: 8 h
# Experimental: The effect of αvβ3/VEGFR2 complex inhibiting peptides in accordance with the present invention on angiogenic function was assessed by tube formation assay on the basement membrane matrix preparation. […] Cells were washed twice with sterile PBS and seeded on Matrigel-coated plates in combination of presence/absence of VEGF and inhibitory peptide. Cells were further incubated at 37° C. for 8 h.
substance,measurement,setting,value
VEGF,increase of migration compared to untreated EC,[1]; 5 ng/ml,1.5 fold
same,increase of migration compared to untreated EC,[1]; 10 ng/ml,2.5 fold
same,increase of migration compared to untreated EC,[1]; 20 ng/ml,2.9 fold
same,increase of fibrinogen binding,αvβ3 integrin [2],at least 6 fold
same,increase of fibrinogen binding,αvβ3 integrin [3],3 fold
same,effect on length of the tubes,[4]; DiYF EC,a little effect
same,increase in the length of the tubes,[4]; WT EC,about 3 fold
same,endothelial cell tube formation induced (length of tubes),[5],at least 450 μm/mm^2
